Measured values from ChEMBL document CHEMBL1932974, “Optimization of a novel kinase inhibitor scaffold for the dual inhibition of JAK2 and FAK kinases” (Bioorg Med Chem Lett, 2012).

Key:
[1] = target: T1, Tyrosine-protein kinase JAK2 (Homo sapiens, UniProt O60674); experiment: Inhibition of human recombinant JAK2 expressed in baculovirus expression system after 20 mins by time resolved fluorescence assay
Focal adhesion kinase 1 [2] = target: T2, Focal adhesion kinase 1 (Homo sapiens, UniProt Q05397); experiment: Inhibition of human recombinant FAK expressed in baculovirus expression system after 30 mins by time resolved fluorescence assay
[3] = target: T1, Tyrosine-protein kinase JAK2; experiment: Inhibition of JAK2 in GM-CSF-stimulated human TF1 cells preincubated for 1 hr prior to challenge
Focal adhesion kinase 1 [4] = target: T2, Focal adhesion kinase 1; experiment: Inhibition of FAK in human 293GT cells after 1 hr by luminescence-based spectrophotometry; format: cell-based
[5] = Metabolic stability in human liver microsomes; format: ADME, Microsome; settings: read-out: Stability
[6] = Metabolic stability in rat liver microsomes; format: ADME, Microsome; settings: read-out: Stability
[7] = Metabolic stability in dog liver microsomes; format: ADME, Canis lupus familiaris, Microsome; settings: read-out: Stability
[8] = Metabolic stability in mouse liver microsomes; format: ADME, Microsome; settings: read-out: Stability
[9] = Plasma protein binding in mouse; format: ADME, cell-free; settings: read-out: PPB (converted)
[10] = AUC (0 to t) in Sprague-Dawley rat at 1 mg/kg, iv; format: ADME, organism-based; set-up: dose 1 mg/kg, route intravenous; settings: plasma
[11] = Half life in Sprague-Dawley rat at 1 mg/kg, iv; format: ADME, organism-based; set-up: dose 1 mg/kg, route intravenous; settings: in vivo
[12] = AUC (0 to infinity) in Sprague-Dawley rat at 5 mg/kg, po; format: ADME, organism-based; set-up: time infinity, dose 5 mg/kg, route oral; settings: plasma
[13] = Volume of distribution in Sprague-Dawley rat at 1 mg/kg, iv; format: ADME, organism-based; set-up: dose 1 mg/kg, route intravenous; settings: in vivo
[14] = Tmax in Sprague-Dawley rat at 5 mg/kg, po; format: ADME, organism-based; set-up: dose 5 mg/kg, route oral; settings: in vivo
[15] = Oral bioavailability in Sprague-Dawley rat at 5 mg/kg; format: ADME, organism-based; settings: in vivo
[16] = target: T3, Tyrosine-protein kinase JAK3 (Homo sapiens, UniProt P52333); experiment: Inhibition of JAK3
T3 sequence (P52333 whole entry): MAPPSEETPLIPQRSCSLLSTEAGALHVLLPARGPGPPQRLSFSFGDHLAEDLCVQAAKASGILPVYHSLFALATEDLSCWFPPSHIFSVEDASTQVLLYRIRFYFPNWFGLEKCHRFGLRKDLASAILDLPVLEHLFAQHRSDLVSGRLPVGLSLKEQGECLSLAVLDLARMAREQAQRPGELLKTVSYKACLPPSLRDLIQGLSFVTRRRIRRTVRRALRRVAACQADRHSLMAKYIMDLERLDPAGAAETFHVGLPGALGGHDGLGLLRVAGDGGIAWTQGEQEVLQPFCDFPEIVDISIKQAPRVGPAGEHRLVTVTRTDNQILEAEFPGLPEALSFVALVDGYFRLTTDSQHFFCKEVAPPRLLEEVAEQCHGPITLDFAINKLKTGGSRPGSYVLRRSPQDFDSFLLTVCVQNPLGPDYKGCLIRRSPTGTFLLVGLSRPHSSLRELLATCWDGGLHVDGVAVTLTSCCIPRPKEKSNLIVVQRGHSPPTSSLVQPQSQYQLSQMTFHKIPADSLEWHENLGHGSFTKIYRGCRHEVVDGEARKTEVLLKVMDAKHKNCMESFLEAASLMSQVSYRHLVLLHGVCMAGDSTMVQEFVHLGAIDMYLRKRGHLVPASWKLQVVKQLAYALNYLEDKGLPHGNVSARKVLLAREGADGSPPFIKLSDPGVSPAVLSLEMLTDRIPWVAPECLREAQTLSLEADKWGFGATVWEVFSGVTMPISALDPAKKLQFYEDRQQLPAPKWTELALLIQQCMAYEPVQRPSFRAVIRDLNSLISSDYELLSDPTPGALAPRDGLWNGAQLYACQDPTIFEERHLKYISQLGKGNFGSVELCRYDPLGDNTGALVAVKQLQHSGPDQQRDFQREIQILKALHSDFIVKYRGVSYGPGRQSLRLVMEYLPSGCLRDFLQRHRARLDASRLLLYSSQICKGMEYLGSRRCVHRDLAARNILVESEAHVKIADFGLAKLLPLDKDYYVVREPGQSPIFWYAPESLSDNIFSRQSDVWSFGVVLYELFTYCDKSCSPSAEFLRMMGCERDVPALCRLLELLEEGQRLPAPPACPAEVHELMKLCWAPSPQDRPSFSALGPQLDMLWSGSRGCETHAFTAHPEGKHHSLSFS

Insulin receptor = Insulin receptor (Homo sapiens, UniProt P06213); experiment: Inhibition of insulin receptor
[17] = Cmax in Sprague-Dawley rat at 5 mg/kg, po; format: ADME, organism-based; set-up: dose 5 mg/kg, route oral; settings: in vivo
[18] = Clearance in Sprague-Dawley rat at 1 mg/kg, iv; format: ADME, organism-based; set-up: dose 1 mg/kg, route intravenous; settings: in vivo
Mus musculus [19] = experiment: Inhibition of FAK phosphorylation in human CWR22 cells xenografted in mouse at 55 mg/kg, po administered as a single dose measured at 2 hrs; format: functional; settings: CWR22, 2 h
Mus musculus [20] = experiment: Inhibition of JAK2-mediated STAT3 phosphorylation in human CWR22 cells xenografted mouse at 55 mg/kg, po administered as a single dose measured up to 12 hrs; format: functional; settings: CWR22, 12 h

T2 sequence (Q05397 whole entry): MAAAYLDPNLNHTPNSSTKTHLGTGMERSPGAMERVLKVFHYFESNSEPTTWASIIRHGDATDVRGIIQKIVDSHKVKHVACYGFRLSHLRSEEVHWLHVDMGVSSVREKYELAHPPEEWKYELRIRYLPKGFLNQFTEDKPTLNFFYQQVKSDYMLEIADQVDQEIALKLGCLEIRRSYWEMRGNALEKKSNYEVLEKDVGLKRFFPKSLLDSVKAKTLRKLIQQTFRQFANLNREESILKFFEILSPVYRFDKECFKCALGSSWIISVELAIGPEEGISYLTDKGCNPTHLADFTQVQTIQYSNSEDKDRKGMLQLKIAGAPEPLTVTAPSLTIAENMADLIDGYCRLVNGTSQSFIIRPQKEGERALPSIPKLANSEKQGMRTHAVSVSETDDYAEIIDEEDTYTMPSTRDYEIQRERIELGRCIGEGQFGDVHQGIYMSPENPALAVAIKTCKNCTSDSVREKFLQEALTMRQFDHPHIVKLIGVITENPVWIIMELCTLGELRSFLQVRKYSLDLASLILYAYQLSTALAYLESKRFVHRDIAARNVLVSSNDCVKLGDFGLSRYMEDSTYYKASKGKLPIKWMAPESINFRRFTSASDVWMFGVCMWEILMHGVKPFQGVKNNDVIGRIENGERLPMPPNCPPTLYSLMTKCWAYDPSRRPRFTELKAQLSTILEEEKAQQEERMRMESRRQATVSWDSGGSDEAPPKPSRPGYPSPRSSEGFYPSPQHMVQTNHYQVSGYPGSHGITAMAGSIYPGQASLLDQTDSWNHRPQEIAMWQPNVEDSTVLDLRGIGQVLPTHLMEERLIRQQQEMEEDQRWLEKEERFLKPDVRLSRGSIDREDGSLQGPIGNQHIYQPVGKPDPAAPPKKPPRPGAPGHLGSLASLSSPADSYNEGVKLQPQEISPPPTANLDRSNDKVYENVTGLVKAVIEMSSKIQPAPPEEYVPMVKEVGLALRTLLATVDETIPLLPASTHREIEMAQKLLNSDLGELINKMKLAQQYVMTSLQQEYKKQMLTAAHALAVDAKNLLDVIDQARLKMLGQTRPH
T1 sequence (O60674 whole entry): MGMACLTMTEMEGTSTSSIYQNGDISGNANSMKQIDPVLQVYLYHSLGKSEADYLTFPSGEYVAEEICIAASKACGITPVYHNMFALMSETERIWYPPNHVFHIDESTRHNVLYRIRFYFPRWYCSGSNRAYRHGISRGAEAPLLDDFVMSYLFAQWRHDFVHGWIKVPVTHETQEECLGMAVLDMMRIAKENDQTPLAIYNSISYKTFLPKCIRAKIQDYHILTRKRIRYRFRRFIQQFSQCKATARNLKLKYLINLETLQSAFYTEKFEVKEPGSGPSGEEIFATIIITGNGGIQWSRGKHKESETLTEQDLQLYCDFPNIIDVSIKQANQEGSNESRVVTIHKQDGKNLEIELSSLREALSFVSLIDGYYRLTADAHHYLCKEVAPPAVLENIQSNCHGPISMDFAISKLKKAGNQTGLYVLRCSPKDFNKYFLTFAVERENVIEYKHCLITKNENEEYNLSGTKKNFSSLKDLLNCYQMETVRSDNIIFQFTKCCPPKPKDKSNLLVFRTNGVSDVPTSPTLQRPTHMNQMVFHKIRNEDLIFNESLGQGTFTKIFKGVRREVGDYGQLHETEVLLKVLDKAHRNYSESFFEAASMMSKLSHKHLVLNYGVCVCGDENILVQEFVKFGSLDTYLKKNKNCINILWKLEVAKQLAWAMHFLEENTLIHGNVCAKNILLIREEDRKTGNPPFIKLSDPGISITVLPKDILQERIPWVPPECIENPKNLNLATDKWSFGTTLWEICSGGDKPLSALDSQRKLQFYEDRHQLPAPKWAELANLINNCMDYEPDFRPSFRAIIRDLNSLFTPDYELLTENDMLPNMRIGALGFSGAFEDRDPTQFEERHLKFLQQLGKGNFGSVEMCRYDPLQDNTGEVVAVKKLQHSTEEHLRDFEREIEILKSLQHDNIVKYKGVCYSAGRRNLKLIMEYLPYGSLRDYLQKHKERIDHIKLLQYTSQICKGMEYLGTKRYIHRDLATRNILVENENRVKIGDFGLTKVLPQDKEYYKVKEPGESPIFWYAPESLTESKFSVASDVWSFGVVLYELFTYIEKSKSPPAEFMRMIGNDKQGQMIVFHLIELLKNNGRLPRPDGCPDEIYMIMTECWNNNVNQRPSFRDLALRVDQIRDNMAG
Sequence of Insulin receptor (P06213 28-758 limits assumed): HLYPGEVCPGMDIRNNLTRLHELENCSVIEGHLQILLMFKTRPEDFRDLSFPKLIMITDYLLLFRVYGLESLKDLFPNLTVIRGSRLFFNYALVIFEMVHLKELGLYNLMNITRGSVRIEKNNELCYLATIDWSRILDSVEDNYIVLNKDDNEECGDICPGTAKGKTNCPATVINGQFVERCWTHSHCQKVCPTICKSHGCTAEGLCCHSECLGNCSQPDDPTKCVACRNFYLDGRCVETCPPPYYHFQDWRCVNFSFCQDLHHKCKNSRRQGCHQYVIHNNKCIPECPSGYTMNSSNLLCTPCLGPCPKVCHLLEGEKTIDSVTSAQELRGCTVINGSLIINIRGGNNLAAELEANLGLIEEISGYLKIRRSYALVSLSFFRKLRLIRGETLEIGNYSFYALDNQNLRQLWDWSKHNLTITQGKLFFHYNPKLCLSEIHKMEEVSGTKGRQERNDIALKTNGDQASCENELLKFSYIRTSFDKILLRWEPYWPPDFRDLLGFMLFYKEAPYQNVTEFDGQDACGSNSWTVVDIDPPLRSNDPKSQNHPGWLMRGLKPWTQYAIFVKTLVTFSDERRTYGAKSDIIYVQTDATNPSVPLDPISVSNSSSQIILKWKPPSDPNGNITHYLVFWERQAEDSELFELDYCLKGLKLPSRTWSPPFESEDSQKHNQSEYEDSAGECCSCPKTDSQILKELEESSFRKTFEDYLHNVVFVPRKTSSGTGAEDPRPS
Sequence of Insulin receptor (P06213 763-1382 limits assumed): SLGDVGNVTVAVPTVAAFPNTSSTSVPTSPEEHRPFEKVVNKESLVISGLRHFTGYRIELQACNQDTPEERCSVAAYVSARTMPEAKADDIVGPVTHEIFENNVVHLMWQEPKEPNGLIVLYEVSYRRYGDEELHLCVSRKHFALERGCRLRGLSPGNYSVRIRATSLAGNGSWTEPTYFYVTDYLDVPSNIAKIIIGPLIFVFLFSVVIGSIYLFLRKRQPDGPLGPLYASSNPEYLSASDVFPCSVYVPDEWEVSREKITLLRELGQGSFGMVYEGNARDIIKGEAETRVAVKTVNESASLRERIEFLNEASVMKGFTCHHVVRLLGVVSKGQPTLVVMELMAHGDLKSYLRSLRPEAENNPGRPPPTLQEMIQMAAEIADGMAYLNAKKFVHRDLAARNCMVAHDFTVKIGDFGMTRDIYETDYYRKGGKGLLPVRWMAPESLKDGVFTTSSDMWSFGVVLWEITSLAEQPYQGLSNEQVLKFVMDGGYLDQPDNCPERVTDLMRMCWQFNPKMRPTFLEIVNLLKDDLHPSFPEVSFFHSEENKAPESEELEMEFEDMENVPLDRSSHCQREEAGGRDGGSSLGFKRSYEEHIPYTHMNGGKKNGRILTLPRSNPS

Row | IC50 [1] | IC50 (Focal adhesion kinase 1 [2]) | IC50 [3] | IC50 (Focal adhesion kinase 1 [4]) | Compound | also measured
1 | 0.2 nM | 17 nM |  |  | COc1cc(Nc2ncc3ccc(-c4ccccc4)n3n2)cc(OC)c1OC | 
2 | 250 nM | 21 nM |  |  | COc1cc(C2CCN(CC(N)=O)CC2)ccc1Nc1ncc2ccc(-c3ccccc3OC)n2n1 | 
3 | 0.6 nM | 55 nM | 41 nM | 690 nM | COc1ccccc1-c1ccc2cnc(Nc3ccc(C4CCN(CC(N)=O)CC4)cc3)nn12 | 
4 | 2 nM | 14 nM | 15 nM | 610 nM | CN(c1ccccc1-c1ccc2cnc(Nc3ccc(C4CCN(CC(N)=O)CC4)cc3)nn12)S(C)(=O)=O | half-life [5]: < 5 min; half-life [6]: 6 min; half-life [7]: 11 min; half-life [8]: 15 min
5 | 0.64 nM | 5.7 nM | 90 nM | 1340 nM | CC(C)(C)NS(=O)(=O)c1cccc(-c2ccc3cnc(Nc4ccc(C5CCN(CC(N)=O)CC5)cc4)nn23)c1 | 
6 | 0.77 nM | 39 nM | 62 nM | 1190 nM | COc1ccc(-c2ccc3cnc(Nc4ccc(C5CCN(CC(N)=O)CC5)cc4)nn23)cn1 | 
7 | 0.22 nM | 21 nM | 60 nM | 660 nM | CS(=O)(=O)Nc1cccc(-c2ccc3cnc(Nc4ccc(C5CCN(CC(N)=O)CC5)cc4)nn23)c1 | 
8 | 0.09 nM | 48 nM | 45 nM | > 10000 nM | CN(c1cccc(-c2ccc3cnc(Nc4ccc(C5CCN(CC(N)=O)CC5)cc4)nn23)c1)S(C)(=O)=O | 
9 | 0.27 nM | 33 nM | 27 nM | 1390 nM | NC(=O)CN1CCC(c2ccc(Nc3ncc4ccc(-c5cccc(CO)c5)n4n3)cc2)CC1 | 
10 | 0.22 nM | 114 nM | 29 nM | > 10000 nM | CS(=O)(=O)c1ccc(-c2ccc3cnc(Nc4ccc(C5CCN(CC(N)=O)CC5)cc4)nn23)cc1 | 
11 | 0.52 nM | 25 nM | 58 nM | 1010 nM | CS(=O)(=O)c1cccc(-c2ccc3cnc(Nc4ccc(C5CCN(CC(N)=O)CC5)cc4)nn23)c1 | 
12 | 2.1 nM | 14 nM | 38 nM | 750 nM | CN(c1ncccc1-c1ccc2cnc(Nc3ccc(C4CCN(CC(N)=O)CC4)cc3)nn12)S(C)(=O)=O | 
13 | 16 nM | 2040 nM | 1140 nM | > 10000 nM | COc1cccnc1-c1ccc2cnc(Nc3ccc(C4CCN(CC(N)=O)CC4)cc3)nn12 | 
14 | 85 nM | > 10000 nM |  |  | NC(=O)CN1CCC(c2ccc(Nc3ncc4ccc(-c5ncccn5)n4n3)cc2)CC1 | 
15 | 8.9 nM | 551 nM | 282 nM |  | NC(=O)CN1CCC(c2ccc(Nc3ncc4ccc(-c5cnccn5)n4n3)cc2)CC1 | 
16 | 13 nM | 122 nM | > 1000 nM |  | NC(=O)CN1CCC(c2ccc(Nc3ncc4ccc(-c5cccc6c5OC(F)(F)O6)n4n3)cc2)CC1 | 
17 | 2900 nM | > 1000 nM |  |  | CN(C)Cc1ccc(-c2ccc3cnc(Nc4ccc(C5CCN(CC(N)=O)CC5)cc4)nn23)cc1 | 
18 |  | 205 nM |  |  | CS(=O)(=O)N1Cc2cccc(-c3ccc4cnc(Nc5ccc(C6CCN(CC(N)=O)CC6)cc5)nn34)c2C1 | 
19 | 6.3 nM | 167 nM | 170 nM |  | NC(=O)CN1CCC(c2ccc(Nc3ncc4ccc(-c5cccc6cccnc56)n4n3)cc2)CC1 | 
20 |  | 11 nM |  | 1230 nM | Cc1cc(-c2ccccc2N(C)S(C)(=O)=O)n2nc(Nc3ccc(C4CCN(CC(N)=O)CC4)cc3)ncc12 | 
21 | 2.5 nM | 5 nM | 12 nM | 420 nM | CN(c1ccccc1-c1cc(Cl)c2cnc(Nc3ccc(C4CCN(CC(N)=O)CC4)cc3)nn12)S(C)(=O)=O | fraction unbound [9]: 0.006; half-life [5]: 11 min; AUC(0-t) [10]: 1320 ng·h/mL; half-life [11]: 60 min; AUC(0-inf) [12]: 832 ng·h/mL; Vd [13]: 1.3 L/kg; Tmax [14]: 2.2 h; bioavailability [15]: 12%; IC50 [16]: 2.9 nM; half-life [6]: 21 min; half-life [7]: 17 min; IC50 (Insulin receptor): 380 nM; Cmax [17]: 185 ng/mL; half-life [8]: 26 min; clearance [18]: 14 mL/min/kg; inhibition in vivo at 55 mg/kg (Mus musculus [19]): > 75%; inhibition in vivo at 55 mg/kg (Mus musculus [20]): > 75%
